Data on one compound can be found in patent publication US8735364B2, “Antisense modulation of apolipoprotein B expression” (Genzyme Corporation, priority 2001, dated 2014).

Molecules are shown by their SMILES.

What all share (assay type): in vivo, mouse
Data set [1] is described as follows: Body, spleen, liver and fat pad weight, high fat fed mice, 6 week study. Particulars: 20 mg/kg daily, compared to saline-treated controls. How it is done:
(§1) Male C57BL/6 mice (n=8) receiving a high fat diet (60% kcal fat) were evaluated over the course of 6 weeks for the effects of treatment with the antisense oligonucleotide, ISIS 147764. Control animals received saline treatment (50 mg/kg). A subset of animals received a daily oral dose (20 mg/kg) atorvastatin calcium (Lipitor®, Pfizer Inc.). All mice, except atorvastatin-treated animals, were dosed intraperitoneally every three days (twice a week), after fasting overnight, with 5, 25, 50 mg/kg ISIS 147764 (SEQ ID No: 109) or saline (50 mg/kg) for six weeks. Serum cholesterol and lipoproteins were analyzed at 0, 2 and 6 week interim timepoints. At study termination, animals were sacrificed 48 hours after the final injections and evaluated for levels of target mRNA levels in liver, cholesterol, lipoprotein, triglyceride, liver enzyme (AST and ALT) and serum glucose levels as well as body, liver, spleen and fat pad weights.
Male C57BL/6 mice (n=8) receiving a high fat diet (60% kcal fat) were evaluated over the course of 6 weeks for the effects of ISIS 147764 on body, spleen, liver and fat pad weight. Control animals received saline treatment (50 mg/kg). Mice were dosed intraperitoneally every three days (twice a week), after fasting overnight, with 5, 25, 50 mg/kg ISIS 147764 (SEQ ID No: 109) or saline (50 mg/kg) for six weeks.
At study termination, animals were sacrificed 48 hours after the final injections and body, spleen, liver and fat pad weights were measured. Values are expressed as percent change in body weight or ogan weight compared to the saline-treated control animals. Data from mice treated with atorvastatin at a daily dose of 20 mg/kg are also shown in the table Negative values indicated a decrease in weight.

A short description of data set [2]: Liver enzyme levels in ApoE knockout mice. An excerpt:
Female ApoE knockout mice ranged in age from 5 to 7 weeks and were placed on a normal diet for 2 weeks before study initiation. ApoE knockout mice were then fed ad libitum a 60% fat diet, with 0.15% added cholesterol to induce dyslipidemia and obesity. […]
At study termination and forty eight hours after the final injections, animals were sacrificed and evaluated for target mRNA levels in liver by RT-PCR methods verified by Northern Blot analysis, glucose levels, cholesterol and lipid levels by HPLC separation methods and triglyceride and liver enzyme levels (perfomed by LabCorp Preclinical Services; San Diego, Calif.). Data are normalized to saline controls.

Data set [3] can be described thus: Serum AST and ALT levels, high fat fed mice, 6 week study. Particulars: daily oral dose of 20 mg/kg. The method, then:
as §1
Male C57BL/6 mice (n=8) receiving a high fat diet (60% kcal fat) were evaluated over the course of 6 weeks for the effects of ISIS 147764 on liver enzyme (AST and ALT) levels. Control animals received saline treatment (50 mg/kg). Mice were dosed intraperitoneally every three days (twice a week), after fasting overnight, with 5, 25, 50 mg/kg ISIS 147764 (SEQ ID No: 109) or saline (50 mg/kg) for six weeks.
Values in the table are expressed as IU/L. Increased levels of the liver enzymes ALT and AST indicate toxicity and liver damage.

Take `CC(C)c1c(C(=O)Nc2ccccc2)c(-c2ccccc2)c(-c2ccc(F)cc2)n1CC[C@@H](O)C[C@@H](O)CC(=O)O` [atorvastatin, atorvastatin calcium, reference compound]: in data set [1], the “Fat pad weight Percent Change” value was found to be 7%, the “Liver weight Percent Change” value was 15%, the “Spleen weight Percent Change” value amounted to 10% and the “Total Body Wt. Percent Change” value stood at 1%. For the same compound, in data set [2] (20 mg/kg daily, Control 56), the “Liver Enzyme Levels ALT” value was found to be 76 IU/L. In data set [2] (Control 55), the “Liver Enzyme Levels AST” value is given as 75 IU/L. The compound also had an AST levels in data set [3] (printed in the ALT paragraph) of 40 IU/L. This compound also came in with an AST levels in data set [3] (saline control 65 IU/L) of 85 IU/L.
